Where two headings read alike, the source gives them in different places.
How the values were obtained:
[1] = Therapeutic index (ratio between upper/lower bounds of therapeutic window); type: in vivo
Protocol: In various example embodiments, dosing is determined using some or all the steps of method 300 for medicaments listed in the following tables. For each medicament listed, a concentration window W or therapeutic index is listed in a third column. The therapeutic index (TI, also referred to as therapeutic ratio) is a quantitative measurement of the relative safety of a drug. It is a comparison of the amount of a therapeutic agent that causes the therapeutic effect to the amount that causes toxicity. As proposed herein, a cost function g(y) is based, at least in part, on a value in this third column. The Koopman Expectation is used in Equation 11 or Equation 12 with a quadrature procedure to deduce an optimum range or subset of the dosing range listed in the second column.

[2] = cited from earlier work; for Concentration range: Table 1 anti-epileptics, * uncertain reference range, ** well defined toxic range
[3] = Table 1 anti-epileptics; printed in place of a dose range; cited from earlier work

Compound | Therapeutic window ([2]; Table 7 antiepileptics) | Therapeutic index ([1]; Table 7 antiepileptics) | Concentration range [2] | also measured
CC1CNc2c(cccc2S(=O)(=O)N[C@@H](CCCNC(=N)N)C(=O)N2CC[C@@H](C)C[C@@H]2C(=O)O)C1 (stereo partly shown) [Argatroban] |  |  |  | Therapeutic index ([1]; Table 5 anticoagulants): 1.7
NC(=O)N1c2ccccc2C=Cc2ccccc21 [Carbamazepine] | 4 to 12 mg/L | 3 |  | 
CN1C(=O)CC(=O)N(c2ccccc2)c2cc(Cl)ccc21 [Clobazam] |  |  | (0.03-0.3 mg/L) | 
O=C1CN=C(c2ccccc2Cl)c2cc([N+](=O)[O-])ccc2N1 [Clonazepam] |  |  | (0.02-0.07 mg/L) | 
[H]/N=C(/N)c1ccc(NCc2nc3cc(C(=O)N(CCC(=O)O)c4ccccn4)ccc3n2C)cc1 [Dabigatran] |  |  |  | Concentration/biomarker range ([2]; Table 2 anticoagulants): (60-200 mg/L or; Therapeutic index ([1]; Table 5 anticoagulants): 1.7
C[C@H]1O[C@@H](O[C@H]2[C@@H](O)C[C@H](O[C@H]3[C@@H](O)C[C@H](O[C@H]4CC[C@@]5(C)[C@H](CC[C@@H]6[C@@H]5C[C@@H](O)[C@]5(C)[C@@H](C7=CC(=O)OC7)CC[C@]65O)C4)O[C@@H]3C)O[C@@H]2C)C[C@H](O)[C@@H]1O [Digoxin] |  |  |  | Concentration/biomarker range ([2]; Table 3 antiarrhythmics, AF): (0.8-2: AF; Concentration/biomarker range ([2]; Table 3 antiarrhythmics, Cl): 0.5-1: Cl)
CCC1(C)CC(=O)NC1=O (stereo not shown) [Ethosuximide] |  |  | (40-100 mg/L) | 
CO[C@H]1C[C@@H]2CC[C@@H](C)[C@@](O)(O2)C(=O)C(=O)N2CCCC[C@H]2C(=O)O[C@H]([C@H](C)C[C@@H]2CC[C@@H](OCCO)[C@H](OC)C2)CC(=O)[C@H](C)/C=C(\C)[C@@H](O)[C@@H](OC)C(=O)[C@H](C)C[C@H](C)/C=C/C=C/C=C/1C [Everolimus] |  |  |  | Small change in concentration may lead to failure/serious AE (concentration range) ([2]; Table 4 immunosuppressants): (3-8 ng/mL)
NC(=O)OCC(COC(N)=O)c1ccccc1 [Felbamate] | 30 to 60 mg/L | 2 | (30-60 mg/L)* | 
NCC1(CC(=O)O)CCCCC1 [Gabapentin] |  |  | (2-20 mg/L) | 
Nc1nnc(-c2cccc(Cl)c2Cl)c(N)n1 [Lamotrigine] | 3 to 14 mg/L | 4.7 | (3-14 mg/L) | 
CC[C@@H](C(N)=O)N1CCCC1=O [Levetiracetam] |  |  | (12-46 mg/L) | 
COc1c(C)c2c(c(O)c1C/C=C(\C)CCC(=O)O)C(=O)OC2 [Mycophenolate] |  |  |  | Small change in concentration may lead to failure/serious AE (exposure range) ([2]; Table 4 immunosuppressants, not in label): (30-60 mg*h/L
CCC1(c2ccccc2)C(=O)NC(=O)NC1=O [Phenobarbital] |  |  | (10-40 mg/L) | 
O=C1NC(=O)C(c2ccccc2)(c2ccccc2)N1 [Phenytoin] | 10 to 20 mg/L | 2 | (10-20 mg/L) | Dose range: PK note [3]: (non-linear PK)
CCC1(c2ccccc2)C(=O)NCNC1=O [Primidone] |  |  | (5-10 mg/L) | 
C=C[C@H]1C[N@@]2CC[C@H]1C[C@@H]2[C@@H](O)c1ccnc2ccc(OC)cc12 [Quinidine] |  |  |  | Concentration/biomarker range ([2]; Table 3 antiarrhythmics): (2-5 mg/L); Therapeutic window ([2]; Table 6 antiarrhythmics): 2 to 5 mg/L; Therapeutic index ([1]; Table 6 antiarrhythmics): 2.5
CO[C@H]1C[C@@H]2CC[C@@H](C)[C@@](O)(O2)C(=O)C(=O)N2CCCC[C@H]2C(=O)O[C@H]([C@H](C)C[C@@H]2CC[C@@H](O)[C@H](OC)C2)CC(=O)[C@H](C)/C=C(\C)[C@@H](O)[C@@H](OC)C(=O)[C@H](C)C[C@H](C)/C=C/C=C/C=C/1C [Sirolimus] |  |  |  | Small change in concentration may lead to failure/serious AE (concentration range) ([2]; Table 4 immunosuppressants): (12-20 ng/mL)
C=CC[C@@H]1/C=C(\C)C[C@H](C)C[C@H](OC)[C@H]2O[C@@](O)(C(=O)C(=O)N3CCCC[C@H]3C(=O)O[C@H](/C(C)=C/[C@@H]3CC[C@@H](O)[C@H](OC)C3)[C@H](C)[C@@H](O)CC1=O)[C@H](C)C[C@@H]2OC [Tacrolimus] |  |  |  | Small change in concentration may lead to failure/serious AE (concentration range) ([2]; Table 4 immunosuppressants): (5-15 ng/mL)
Cc1ccsc1C(=CCCN1CCC[C@@H](C(=O)O)C1)c1sccc1C [Tiagabine] | 0.02 to 0.2 mg/L | 10 | (0.02-0.2 mg/L)* | 
CC1(C)O[C@@H]2[C@@H](CO[C@@]3(COS(N)(=O)=O)OC(C)(C)O[C@@H]23)O1 [Topiramate] | 5 to 20 mg/L | 4 | (5-20 mg/L) | 
CCCC(CCC)C(=O)O [Valproic acid] | 50 to 100 mg/L | 2 | (50-100 mg/L) | Dose range: PK note [3]: (non-linear PK)
C=CC(N)CCC(=O)O (stereo not shown) [Vigabatrin] |  |  | (0.8-36 mg/L) | 
CC(=O)CC(c1ccccc1)c1c(O)c2ccccc2oc1=O (stereo not shown) [Warfarin] |  |  |  | Therapeutic index ([1]; Table 5 anticoagulants): 1.5
NS(=O)(=O)Cc1noc2ccccc12 [Zonisamide] | 10 to 40 mg/L | 4 | (10-40 mg/L)** | 

— patent US20220375563A1, “METHOD AND APPARATUS FOR INDIVIDUALIZED ADMINISTRATION OF MEDICAMENTS FOR ENHANCED SAFE DELIVERY WITHIN A THERAPEUTIC RANGE” (UNIVERSITY OF MARYLAND, BALTIMORE, priority 2019, published 2022)
